Assay results: ChEMBL document CHEMBL4825757, “Optimization of 4,6-Disubstituted Pyrido[3,2-d]pyrimidines as Dual MNK/PIM Inhibitors to Inhibit Leukemia Cell Growth” (J Med Chem, 2021)
The source made the active and inactive calls. The rule behind the calls is not given here.

Legend:
[1] = molecular target: T1, MAP kinase-interacting serine/threonine-protein kinase 1 (Homo sapiens, UniProt Q9BUB5); test: Inhibition of MKN1 (unknown origin) in presence of ATP by HTRF assay
Target sequence in this assay (Q9BUB5 whole entry): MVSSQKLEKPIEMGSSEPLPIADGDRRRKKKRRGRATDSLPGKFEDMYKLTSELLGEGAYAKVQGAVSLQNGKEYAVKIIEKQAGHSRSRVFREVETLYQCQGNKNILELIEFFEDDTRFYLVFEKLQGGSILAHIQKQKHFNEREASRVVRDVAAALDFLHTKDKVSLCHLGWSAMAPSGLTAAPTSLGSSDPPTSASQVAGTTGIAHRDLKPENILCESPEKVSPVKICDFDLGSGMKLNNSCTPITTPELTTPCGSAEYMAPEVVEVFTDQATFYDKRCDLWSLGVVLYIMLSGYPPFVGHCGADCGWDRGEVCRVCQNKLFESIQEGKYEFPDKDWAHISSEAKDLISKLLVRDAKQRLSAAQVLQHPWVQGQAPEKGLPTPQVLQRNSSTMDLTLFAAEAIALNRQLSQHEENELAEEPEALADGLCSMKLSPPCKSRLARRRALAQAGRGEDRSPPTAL

[2] = molecular target: MAP kinase-interacting serine/threonine-protein kinase 2 (Homo sapiens, UniProt Q9HBH9); test: Inhibition of MKN2 (unknown origin) in presence of ATP by HTRF assay
[3] = molecular target: T1, MAP kinase-interacting serine/threonine-protein kinase 1; test: Inhibition of MKN1 (unknown origin) at 1 uM in presence of ATP by HTRF assay
Target sequence in this assay (Q9BUB5 whole entry, looked up): as the sequence (Q9BUB5 whole entry) above

MOLM-13 [4] = test: Antiproliferative activity against human MOLM13 cells assessed as reduction of cell viability incubated for 72 hrs by trypan blue staining based cell counting analysis; assay type: functional
HL-60 = test: Antiproliferative activity against human HL-60 cells assessed as reduction of cell viability incubated for 72 hrs by trypan blue staining based cell counting analysis; assay type: functional
K562 [5] = test: Antiproliferative activity against human K562 cells assessed as reduction of cell viability incubated for 72 hrs by trypan blue staining based cell counting analysis; assay type: functional
[6] = molecular target: MAP kinase-interacting serine/threonine-protein kinase 1/2 (Homo sapiens) (UniProt Q9HBH9+Q9BUB5); test: Inhibition of MNK1/MNK2 in human MOLM-13 cells assessed as reduction in eIF4E phosphorylation at 1 to 2 uM incubated for 12 hrs by western blot analysis; assay type: cell-based; conditions: dose 1-2 µM
[7] = molecular target: T2, Serine/threonine-protein kinase PIM (Homo sapiens) (UniProt P11309+Q9P1W9+Q86V86); test: Inhibition of PIM in human MOLM-13 cells assessed as reduction of BAD phosphorylation at 1 to 2 uM incubated for 12 hrs by western blot analysis; assay type: cell-based; conditions: dose 1-2 µM
[8] = molecular target: T2, Serine/threonine-protein kinase PIM (Homo sapiens); test: Inhibition of PIM in human MOLM-13 cells assessed as reduction in phosphorylated 4EBP1 at 1 to 2 uM incubated for 12 hrs by western blot analysis; assay type: cell-based; conditions: dose 1-2 µM
MOLM-13 [9] = test: Downregulation of c-myc levels in human MOLM-13 cells at 1 to 2 uM incubated for 12 hrs by western blot analysis; assay type: functional, cell-based; conditions: dose 1-2 µM
MOLM-13 [10] = test: Downregulation of mcl-1 levels in human MOLM-13 cells at 1 to 2 uM incubated for 12 hrs by western blot analysis; assay type: functional, cell-based; conditions: dose 1-2 µM
MOLM-13 [11] = test: Downregulation of cyclin-D1 levels in human MOLM-13 cells at 1 to 2 uM incubated for 12 hrs by western blot analysis; assay type: functional, cell-based; conditions: dose 1-2 µM
K562 [12] = test: Downregulation of c-myc levels in human K562 cells at 1 to 2 uM incubated for 24 hrs by western blot analysis; assay type: functional, cell-based; conditions: dose 1-2 µM
K562 [13] = test: Downregulation of mcl-1 levels in human K562 cells at 1 to 2 uM incubated for 24 hrs by western blot analysis; assay type: functional, cell-based; conditions: dose 1-2 µM
K562 [14] = test: Downregulation of cyclin-D1 levels in human K562 cells at 1 to 2 uM incubated for 24 hrs by western blot analysis; assay type: functional, cell-based; conditions: dose 1-2 µM
MOLM-13 [15] = test: Induction of cell cycle arrest in human MOLM-13 cells assessed as sub-G1 phase at 1 uM incubated for 12 hr by propidium iodide based flow cytometry analysis (Rvb= 4.78%); assay type: functional
MOLM-13 [16] = test: Induction of cell cycle arrest in human MOLM-13 cells assessed as G1 phase at 1 uM incubated for 12 hr by propidium iodide based flow cytometry analysis (Rvb= 51.29%); assay type: functional
MOLM-13 [17] = test: Induction of cell cycle arrest in human MOLM-13 cells assessed as sub-G1 phase at 2 uM incubated for 12 hr by propidium iodide based flow cytometry analysis (Rvb= 4.78%); assay type: functional
MOLM-13 [18] = test: Induction of cell cycle arrest in human MOLM-13 cells assessed as G1 phase at 2 uM incubated for 12 hr by propidium iodide based flow cytometry analysis (Rvb= 51.29%); assay type: functional
MOLM-13 [19] = test: Induction of apoptosis in human MOLM-13 cells assessed as necrotic cells at 1 uM incubated for 12 hrs by annexin-V and propidium iodide staining based flow cytometry analysis (reference value: 0.06%); assay type: functional
MOLM-13 [20] = test: Induction of apoptosis in human MOLM-13 cells assessed as necrotic cells at 2 uM incubated for 12 hrs by annexin-V and propidium iodide staining based flow cytometry analysis (reference value: 0.06%); assay type: functional
MOLM-13 [21] = test: Induction of apoptosis in human MOLM-13 cells assessed as late apoptotic cells at 1 uM incubated for 12 hrs by annexin-V and propidium iodide staining based flow cytometry analysis (reference value: 3.03%); assay type: functional
MOLM-13 [22] = test: Induction of apoptosis in human MOLM-13 cells assessed as late apoptotic cells at 2 uM incubated for 12 hrs by annexin-V and propidium iodide staining based flow cytometry analysis (reference value: 3.03%); assay type: functional
MOLM-13 [23] = test: Induction of apoptosis in human MOLM-13 cells assessed as live cells at 1 uM incubated for 12 hrs by annexin-V and propidium iodide staining based flow cytometry analysis (reference value: 91.49%); assay type: functional
MOLM-13 [24] = test: Induction of apoptosis in human MOLM-13 cells assessed as live cells at 2 uM incubated for 12 hrs by annexin-V and propidium iodide staining based flow cytometry analysis (reference value: 91.49%); assay type: functional
MOLM-13 [25] = test: Induction of apoptosis in human MOLM-13 cells assessed as early apoptotic cells at 1 uM incubated for 12 hrs by annexin-V and propidium iodide staining based flow cytometry analysis (reference value: 5.40%); assay type: functional
MOLM-13 [26] = test: Induction of apoptosis in human MOLM-13 cells assessed as early apoptotic cells at 2 uM incubated for 12 hrs by annexin-V and propidium iodide staining based flow cytometry analysis (reference value: 5.40%); assay type: functional
[27] = Metabolic stability in rat liver microsomes assessed as half life preincubated for 10 mins followed by NADPH addition and further incubated upto 60 mins by LC-MS/MS analysis; assay type: ADME, Microsome; conditions: time <=70 min
[28] = Intrinsic clearance in human liver microsomes preincubated for 10 mins followed by NADPH addition and further incubated upto 60 mins by LC-MS/MS analysis; assay type: ADME, Microsome; conditions: time <=70 min, read-out: CLH
[29] = Intrinsic clearance in rat liver microsomes preincubated for 10 mins followed by NADPH addition and further incubated upto 60 mins by LC-MS/MS analysis; assay type: ADME, Microsome; conditions: time <=70 min, read-out: CLH

Sequence of MAP kinase-interacting serine/threonine-protein kinase 2 (Q9HBH9 whole entry): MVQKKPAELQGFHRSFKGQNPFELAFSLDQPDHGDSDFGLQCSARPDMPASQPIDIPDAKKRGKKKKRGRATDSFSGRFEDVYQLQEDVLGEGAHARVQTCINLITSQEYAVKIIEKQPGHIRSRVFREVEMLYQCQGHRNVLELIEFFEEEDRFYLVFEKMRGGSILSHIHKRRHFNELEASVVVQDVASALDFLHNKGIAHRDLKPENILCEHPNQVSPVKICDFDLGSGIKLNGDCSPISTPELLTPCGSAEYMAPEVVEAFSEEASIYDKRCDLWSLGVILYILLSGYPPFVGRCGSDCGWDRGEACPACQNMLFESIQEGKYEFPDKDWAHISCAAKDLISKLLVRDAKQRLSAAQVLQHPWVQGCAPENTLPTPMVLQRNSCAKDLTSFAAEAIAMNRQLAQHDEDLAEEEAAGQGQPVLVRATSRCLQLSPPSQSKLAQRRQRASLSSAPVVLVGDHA
T2 sequence (P11309 whole entry, looked up): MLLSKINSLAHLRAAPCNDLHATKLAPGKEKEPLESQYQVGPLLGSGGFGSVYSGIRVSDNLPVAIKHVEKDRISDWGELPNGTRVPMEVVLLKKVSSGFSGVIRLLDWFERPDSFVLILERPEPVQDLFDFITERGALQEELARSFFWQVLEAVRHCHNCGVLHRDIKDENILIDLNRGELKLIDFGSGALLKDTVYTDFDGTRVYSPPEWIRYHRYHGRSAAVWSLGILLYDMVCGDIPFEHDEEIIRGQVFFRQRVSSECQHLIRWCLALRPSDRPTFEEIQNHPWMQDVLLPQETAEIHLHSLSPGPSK
T2 sequence (Q9P1W9 whole entry, looked up): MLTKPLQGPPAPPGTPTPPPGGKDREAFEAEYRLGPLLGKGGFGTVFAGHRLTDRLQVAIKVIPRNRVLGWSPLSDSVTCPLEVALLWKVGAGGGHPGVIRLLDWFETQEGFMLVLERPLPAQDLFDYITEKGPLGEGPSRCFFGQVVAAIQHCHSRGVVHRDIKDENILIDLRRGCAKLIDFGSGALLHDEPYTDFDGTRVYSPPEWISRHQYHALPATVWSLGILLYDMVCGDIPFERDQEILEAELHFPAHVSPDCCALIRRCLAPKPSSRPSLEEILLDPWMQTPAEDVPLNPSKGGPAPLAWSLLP

SMILES: N#Cc1ccc(Nc2ncnc3ccc(-c4ccc(C(=O)N5CCNCC5)cc4)nc23)cc1
- IC50 [1]: 0.00015 µM
- IC50 [2]: 0.043 µM
- inhibition [3]: 88%

SMILES: Cc1c(C(=O)N2CCOCC2)oc2ccc(Nc3ncnc4ccc(Cl)nc34)cc12
- IC50 [1]: > 10 µM
- IC50 [2]: 1.8 µM

SMILES: CNC(=O)c1ccc(-c2ccc3ncnc(Nc4ccccc4)c3n2)cc1
- IC50 [2]: 0.058 µM
- inhibition [3]: 37%
- GI50 (MOLM-13 [4]): 1.83 µM

SMILES: O=C(c1cccc(C#Cc2ccccc2Nc2ncnc3ccc(Cl)nc23)c1)N1CCNCC1
- IC50 [1]: > 10 µM
- IC50 [2]: 5 µM

SMILES: COC(=O)c1oc2ccc(Nc3ncnc4ccc(Cl)nc34)cc2c1C
- IC50 [1]: > 10 µM
- IC50 [2]: 4.8 µM

SMILES: COc1cc(Nc2ncnc3ccc(-c4ccc(C(=O)N5CCNCC5)cc4)nc23)ccc1F
- IC50 [1]: 0.001 µM
- IC50 [2]: 0.025 µM
- inhibition [3]: 90%
- GI50 (MOLM-13 [4]): 2.85 µM

SMILES: O=C(c1cccc(-c2ccc3ncnc(Nc4ccccc4)c3n2)c1)N1CCNCC1
- IC50 [2]: 0.624 µM
- inhibition [3]: 57%
- GI50 (MOLM-13 [4]): 3.92 µM

SMILES: O=C(c1ccc(-c2ccc3ncnc(Nc4ccc(F)cc4)c3n2)cc1)N1CCNCC1
- IC50 [1]: 0.0011 µM
- IC50 [2]: 0.026 µM
- inhibition [3]: 83%
- GI50 (MOLM-13 [4]): 7.93 µM

SMILES: Cc1c(C(=O)N2CCNCC2)oc2ccc(Nc3ncnc4ccc(Cl)nc34)cc12
- IC50 [1]: > 10 µM
- IC50 [2]: 1.9 µM

SMILES: O=C(c1ccc(-c2ccc3ncnc(Nc4ccc(O)cc4)c3n2)cc1)N1CCNCC1
- IC50 [1]: 0.0085 µM
- IC50 [2]: 0.041 µM
- inhibition [3]: 86%
- GI50 (MOLM-13 [4]): 11.2 µM

SMILES: c1ccc(Nc2ncnc3ccc(-c4ccccc4)nc23)cc1
- IC50 [2]: 0.612 µM
- inhibition [3]: 0%

SMILES: CCCNC(=O)c1cccc(C#Cc2ccccc2Nc2ncnc3ccc(Cl)nc23)c1
- IC50 [1]: > 10 µM
- IC50 [2]: 3.9 µM

SMILES: O=C(c1cccc(-c2ccc3ncnc(Nc4ccc(F)cc4)c3n2)c1)N1CCNCC1
- IC50 [2]: 0.052 µM
- inhibition [3]: 70%
- GI50 (MOLM-13 [4]): 6.05 µM

SMILES: CN1CCC(CNc2ccc3ncc(-c4cccc(OC(F)(F)F)c4)n3n2)CC1 [SGI-1776]
- GI50 (MOLM-13 [4]): 0.13 µM
- GI50 (HL-60): 1.28 µM
- GI50 (K562 [5]): 2.19 µM
- inhibition [6]: inactive
- inhibition [7]: Active
- inhibition [8]: Active
- Activity (MOLM-13 [9]): Active
- Activity (MOLM-13 [10]): Active
- Activity (MOLM-13 [11]): Active
- Activity (K562 [12]): inactive
- Activity (K562 [13]): inactive
- Activity (K562 [14]): inactive
- Activity (MOLM-13 [15]): 15.68%
- Activity (MOLM-13 [16]): 67.94%
- Activity (MOLM-13 [17]): 26.08%
- Activity (MOLM-13 [18]): 58.06%
- Activity (MOLM-13 [19]): 0.22%
- Activity (MOLM-13 [20]): 0.13%
- Activity (MOLM-13 [21]): 4.05%
- Activity (MOLM-13 [22]): 4.23%
- Activity (MOLM-13 [23]): 71.17%
- Activity (MOLM-13 [24]): 64.56%
- Activity (MOLM-13 [25]): 24.57%
- Activity (MOLM-13 [26]): 31.08%

SMILES: O=C(c1cccc(C#Cc2ccccc2Nc2ncnc3ccc(Cl)nc23)c1)N1CCOCC1
- IC50 [1]: > 10 µM
- IC50 [2]: > 10 µM

SMILES: O=C(c1ccc(-c2ccc3ncnc(Nc4cccc(F)c4)c3n2)cc1)N1CCNCC1
- IC50 [2]: 0.033 µM
- inhibition [3]: 70%
- GI50 (MOLM-13 [4]): 3.8 µM

SMILES: O=C(c1ccc(-c2ccc3ncnc(Nc4ccccc4F)c3n2)cc1)N1CCNCC1
- IC50 [2]: 0.01 µM
- inhibition [3]: 34%
- GI50 (MOLM-13 [4]): 3.08 µM

SMILES: COc1ccc(Nc2ncnc3ccc(-c4ccc(C(=O)N5CCNCC5)cc4)nc23)cc1
- IC50 [2]: 0.111 µM
- inhibition [3]: 7%
- GI50 (MOLM-13 [4]): 10.1 µM

SMILES: Cc1c(C(=O)N(C)C)oc2ccc(Nc3ncnc4ccc(Cl)nc34)cc12
- IC50 [1]: > 10 µM
- IC50 [2]: 2.2 µM

SMILES: CN(C)C(=O)c1cccc(C#Cc2ccccc2Nc2ncnc3ccc(Cl)nc23)c1
- IC50 [1]: > 10 µM
- IC50 [2]: > 10 µM

SMILES: CCCNC(=O)c1oc2ccc(Nc3ncnc4ccc(Cl)nc34)cc2c1C
- IC50 [1]: > 10 µM
- IC50 [2]: 1.9 µM

SMILES: O=C(c1ccc(-c2ccc3ncnc(Nc4ccc(C(F)(F)F)cc4)c3n2)cc1)N1CCNCC1
- IC50 [2]: 0.041 µM
- inhibition [3]: 0%
- GI50 (MOLM-13 [4]): 2.67 µM

SMILES: Cc1ccc(Nc2ncnc3ccc(-c4ccc(C(=O)N5CCNCC5)cc4)nc23)cc1
- IC50 [2]: 0.062 µM
- inhibition [3]: 12%
- GI50 (MOLM-13 [4]): 3.54 µM

SMILES: COC(=O)c1cccc(C#Cc2ccccc2Nc2ncnc3ccc(Cl)nc23)c1
- IC50 [1]: > 10 µM
- IC50 [2]: 4.2 µM

SMILES: COc1cc(F)ccc1Nc1ncnc2ccc(-c3ccc(C(=O)N4CCNCC4)cc3)nc12
- IC50 [1]: 0.0012 µM
- IC50 [2]: 0.029 µM
- inhibition [3]: 89%
- GI50 (MOLM-13 [4]): 1.88 µM

SMILES: CNC(=O)c1cccc(C#Cc2ccccc2Nc2ncnc3ccc(Cl)nc23)c1
- IC50 [1]: > 10 µM
- IC50 [2]: 4.9 µM

SMILES: Cc1ncc2n1-c1ccc(Cl)cc1C(c1ccccc1F)=NC2 [MIDAZOLAM]
- half-life [27]: 2.64 min
- CLint scaled [28]: 219 mL/min/kg
- CLint scaled [29]: 939 mL/min/kg

SMILES: O=C(c1ccc(-c2ccc3ncnc(Nc4ccccc4)c3n2)cc1)N1CCNCC1
- IC50 [2]: 0.036 µM
- inhibition [3]: 71%
- GI50 (MOLM-13 [4]): 3.19 µM

SMILES: CNC(=O)c1oc2ccc(Nc3ncnc4ccc(Cl)nc34)cc2c1C
- IC50 [1]: > 10 µM
- IC50 [2]: 2.5 µM
